Data: ChEMBL document CHEMBL1141129, “Glucosamine-glycerophospholipids that activate cell-matrix adhesion and migration” (2005)

What was measured:
Format in all cases: functional
HaCaT [1] = experiment: Lethal dose for Proliferation of human HaCaT cells after 24 hr of treatment upon incubation for 6 h; details: read-out: LD50 (the source's name)
HaCaT [2] = experiment: Lethal dose for Proliferation of human HaCaT cells after 24 hr of treatment upon incubation for 24 h; details: for CC50: read-out: LD50 (the source's name)
MDCK = experiment: Lethal dose for Proliferation of […] after 24 hr of treatment upon incubation for 6 h; details: Canis lupus familiaris, read-out: LD50 (the source's name)

Structure (SMILES)	CC50 (HaCaT [2])	CC50 (MDCK)	also measured
CCCCCCCCCCCCCCCCCCOC[C@H](COP(=O)([O-])OCC[N+](C)(C)C)O[C@@H]1O[C@H](CO)[C@@H](O)[C@H](O)[C@H]1O	–	–	CC50 (HaCaT [1]): 9 µM
CCCCCCCCCCCCCCCCCCOC[C@H](COP(=O)([O-])OCC[N+](C)(C)C)OC1OC(O)C(O)C(O)C1NC1C(=O)C(C)=C(C)C1=O (stereo partly specified)	5.5 µM	–	–
CCCCCCCCCCCCCCCCCCOC[C@H](COP(=O)([O-])OCC[N+](C)(C)C)OC1OC(O)C(O)C(O)C1N (stereo partly specified)	30 µM	–	–
CCCCCCCCCCCCCCCCCCOCC(COP(=O)([O-])OCC[N+](C)(C)C)OC (stereo unspecified) [EDELFOSINE]	–	90 µM	–
CCCCCCCCCCCCCCCCOP(=O)([O-])OCC[N+](C)(C)C [MILTEFOSINE]	–	200 µM	LD10 (HaCaT [2]): 20 µmol/L
